In assay [1] the target is T1, Inhibitor of nuclear factor kappa-B kinase subunit alpha (Homo sapiens) (UniProt O15111).
T1 sequence (whole entry): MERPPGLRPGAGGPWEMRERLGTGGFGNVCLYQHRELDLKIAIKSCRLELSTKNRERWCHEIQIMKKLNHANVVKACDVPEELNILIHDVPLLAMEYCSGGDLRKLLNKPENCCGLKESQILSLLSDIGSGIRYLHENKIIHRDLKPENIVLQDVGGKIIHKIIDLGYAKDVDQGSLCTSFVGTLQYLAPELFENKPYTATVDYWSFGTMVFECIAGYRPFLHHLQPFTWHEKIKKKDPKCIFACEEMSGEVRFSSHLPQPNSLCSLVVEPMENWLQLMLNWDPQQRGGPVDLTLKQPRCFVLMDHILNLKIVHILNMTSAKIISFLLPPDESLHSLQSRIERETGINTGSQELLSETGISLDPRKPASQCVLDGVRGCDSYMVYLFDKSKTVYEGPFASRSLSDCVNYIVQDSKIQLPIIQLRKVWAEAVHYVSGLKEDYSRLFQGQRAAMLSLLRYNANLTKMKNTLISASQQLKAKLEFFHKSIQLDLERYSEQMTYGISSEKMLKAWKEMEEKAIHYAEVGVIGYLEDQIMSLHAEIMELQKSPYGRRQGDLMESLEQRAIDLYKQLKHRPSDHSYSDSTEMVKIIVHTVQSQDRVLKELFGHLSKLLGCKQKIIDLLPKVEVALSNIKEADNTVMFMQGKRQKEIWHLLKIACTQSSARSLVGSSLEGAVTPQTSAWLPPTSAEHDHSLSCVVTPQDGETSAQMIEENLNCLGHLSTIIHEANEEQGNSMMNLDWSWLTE
The following applies: at 1 µM.

In assay [2] the target is T2, Inhibitor of nuclear factor kappa-B kinase subunit epsilon (Homo sapiens) (UniProt Q14164).
T2 sequence (whole entry): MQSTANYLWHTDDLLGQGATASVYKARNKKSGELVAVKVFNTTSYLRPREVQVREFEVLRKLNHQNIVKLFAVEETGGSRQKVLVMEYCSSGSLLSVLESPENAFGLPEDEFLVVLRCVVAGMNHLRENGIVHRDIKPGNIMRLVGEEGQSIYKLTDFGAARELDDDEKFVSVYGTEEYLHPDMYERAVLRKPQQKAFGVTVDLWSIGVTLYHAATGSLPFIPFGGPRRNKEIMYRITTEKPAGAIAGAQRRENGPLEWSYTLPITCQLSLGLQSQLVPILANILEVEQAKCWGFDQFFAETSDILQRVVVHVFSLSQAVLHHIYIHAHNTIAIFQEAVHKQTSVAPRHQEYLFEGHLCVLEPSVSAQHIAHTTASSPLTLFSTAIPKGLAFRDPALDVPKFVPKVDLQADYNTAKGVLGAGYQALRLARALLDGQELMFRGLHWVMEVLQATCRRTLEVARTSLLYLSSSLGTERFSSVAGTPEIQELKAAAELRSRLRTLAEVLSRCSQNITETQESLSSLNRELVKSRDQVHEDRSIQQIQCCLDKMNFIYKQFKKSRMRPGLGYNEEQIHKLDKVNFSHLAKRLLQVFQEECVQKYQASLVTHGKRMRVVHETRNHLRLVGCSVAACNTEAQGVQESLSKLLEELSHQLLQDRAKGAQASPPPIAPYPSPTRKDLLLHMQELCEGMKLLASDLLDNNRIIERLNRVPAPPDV
The following applies: at 1 µM.

We go through 25 compounds from ChEMBL document CHEMBL2007661, “Compounds: GSK PKIS; Assays: UNC Frye lab” (2012).

Values joined by “and” are separate entries in the source; they are usually repeats but may differ in a detail not shown here. Equal entries are not always repeated.

Usually inhibition stands for the drop in the measured response relative to a control, in per cent. With `CN1CCC(n2cnc(-c3ccc(F)cc3)c2-c2ccnc(Nc3ccccc3)n2)CC1`, the inhibition was -1% and 0% in assay [1]; 0% and -2% in assay [2].

Turning to `CNC(=O)c1ncccc1Nc1nc(Nc2cc3c(cc2OC)CCCN3C(=O)CN(C)C)nc2[nH]ccc12`, the inhibition in assay [1] was 6% and 5%; in assay [2], 0% and 5%.

For `O=C(Nc1n[nH]c2nnc(-c3cccnc3)cc12)C1CC1`, the inhibition is 5% and 7% in assay [1]; -1% and 1% in assay [2].

For the compound `CN1CCC(C(=O)Nc2n[nH]c3nnc(-c4ccccc4)cc23)CC1`, the results for the inhibition in assay [1] and in assay [2] were 3% and -3%, respectively.

As to `CS(=O)(=O)CCNCc1ccc(-c2ccc3ncnc(Nc4ccc(OCc5ccccc5)c(C(F)(F)F)c4)c3c2)o1`, the inhibition in assay [1] was 1% and -1%; in assay [2] it was -2% and -1%.

Take `CCCN(CCS(C)(=O)=O)Cc1ccc(-c2ccc3ncnc(Nc4ccc(OCc5cccc(F)c5)c(Cl)c4)c3c2)o1`: the inhibition in assay [1] is 2% and -1%; in assay [2], 1% and 3%.

As to `CN(c1ccc(NC(=O)NCCN2CCOCC2)cc1)c1ccnc(Nc2ccc(CS(C)(=O)=O)cc2)n1`, the inhibition in assay [1] is 1%; in assay [2], 2% and 5%.

On to `CCN1CCC(CC(=O)Nc2n[nH]c3nc(-c4cccs4)c(Br)cc23)CC1`, for which the inhibition is -9% and 5% in assay [1]; 2% and 1% in assay [2].

On to `COc1cc(C=NNc2ncnc3c2cnn3-c2ccccc2)ccc1O`, for which the inhibition is 12% and 15% in assay [1]; 13% and 11% in assay [2].

Regarding `Nc1nc(-c2ccccn2)c(-c2ccc3ncccc3n2)s1`, the inhibition was 5% in assay [1]; 0% and -2% in assay [2].

For `O=S(=O)(CCNCc1ccc(-c2ccc3ncnc(Nc4ccc(OCc5cccc(F)c5)c(Cl)c4)c3c2)o1)c1ccccc1`, the inhibition in assay [1] was 4% and 12%; in assay [2], -2% and -1%.

With `COc1cc2c(cc1Nc1nc(N3CCc4ccccc43)c3cc[nH]c3n1)N(C(=O)CN(C)C)CC2`, the inhibition in assay [1] is 3%; in assay [2] it was 21% and 19%.

For `Cc1cccc(-c2n[nH]cc2-c2ccc3ncccc3n2)n1`, the inhibition was 2% and 4% in assay [1]; -4% in assay [2].

For `COC(=O)Nc1nc2ccc(S(=O)(=O)c3ccc(NC(=O)Nc4cc(C(F)(F)F)ccc4F)cc3)cc2[nH]1`, the inhibition in assay [1] was 2% and 3%; in assay [2] it was -1% and -2%.

Consider `Nc1nccc(-c2c(-c3ccc(F)cc3)nn3cc(C(F)(F)F)ccc23)n1`, for which the inhibition in assay [1] was 1% and 0%; in assay [2], 2%.

As for `CS(=O)(=O)Nc1ccc(-c2cc(-c3ccccc3)cc(C(N)=O)c2N)cc1`, the inhibition in assay [1] was -1% and -3%; in assay [2], -2% and -1%.

With `COc1cccc(-n2ncc3c(N/N=C/c4ccc(F)cc4)ncnc32)c1`, the inhibition is 5% and 3% in assay [1]; 1% and 0% in assay [2].

Turning to `CN(C)CCCNc1nccc(-c2c(-c3ccc(F)cc3)nn3cc(C(F)(F)F)ccc23)n1`, the inhibition in assay [1] is 2% and 3%; in assay [2], -1% and 0%.

Take `O=C(O[C@H]1CN[C@H](C#Cc2cc3ncnc(Nc4ccc5c(cnn5Cc5ccccc5)c4)c3s2)C1)N1CCOCC1`: the inhibition in assay [1] is 4% and 3%; in assay [2] it was 1% and 2%.

For the compound `Nc1nonc1-c1nc2cnccc2n1C1CC1`, the inhibition in assay [1] is 29% and 33%; in assay [2], 11% and 21%.

Consider `COC(=O)Nc1nc2cc(Oc3cccc(NC(=O)Nc4cc(C(F)(F)F)ccc4F)c3)ccc2[nH]1`, for which the inhibition in assay [1] is 0% and 2%; in assay [2], -1% and -2%.

As to `NC(=O)c1ccc(-c2nc(-c3ccccn3)c(-c3ccc4c(c3)OCO4)[nH]2)cc1`, the inhibition was -3% in assay [1]; -1% and -3% in assay [2].

For the compound `O=C(Nc1ccc(Oc2ccc3[nH]c(NC(=O)c4ccccc4)nc3c2)cc1)Nc1cc(C(F)(F)F)ccc1F`, the inhibition is 11% in assay [1]; 6% and 5% in assay [2].

With `COc1cccc(-n2nc(C)c3c(N/N=C(\C)c4ccncc4)ncnc32)c1`, the inhibition in assay [1] was 7% and 6%; in assay [2] it was 18% and 3%.

Consider `O=C(NCC1CC1)c1ccc(-c2cccc(C(=O)NC3CC3)c2)cc1`, for which the inhibition in assay [1] was -4% and -5%; in assay [2], -5% and 0%.
